# Reference: patent US11472771B2, “Process for making amino diaryl ethers and amino diaryl ethers hydrochloride salts” (CELLESTIA BIOTECH AG, priority 2018, dated 2022)
# Tests used:
# Assay type in all cases: physicochemical
# [1] = Stability study, storage 25° C., 60% rh
# Experimental: For 6-(4-(tert-butyl)phenoxy)pyridin-3-amine monohydrochloride two different types of stability studies were performed including short-term and long-term stability studies, respectively, at 25° C. (RH, 60%), −5° C. and −20° C. for 36 months and an accelerated study at 40° C. (RH, 75%) over 6 months. In terms of analytical determinations six tests were involved including appearance, assay free base mean and purity mean, water, IR and XRPD. Appearance was determined by visual inspection. The product should be a white or off-white powder. Water content was determined according to USP <921> coulometric method. Identification of 6-(4-(tert-butyl)phenoxy)pyridin-3-amine monohydrochloride by IR spectroscopy was done according to USP <197>, comparing the spectrum obtained to that of the reference standard. X-Ray powder diffraction (XRPD) was performed according to USP <941> against the reference XRPD spectrum. Purity and assay of free base was done by HPLC-UV. Two methods were used. Mobile phases in the first method were water and acetonitrile. Mobile phases in the second method were water (0.5 mL of trifluoroacetic acid was added to 1000 mL of water) and acetonitrile (0.4 mL of trifluoroacetic acid was added to 1000 mL of acetonitrile). Equipment and chromatographic conditions for identification and determination of purity and assay of the 6-(4-(tert-butyl)phenoxy)pyridin-3-amine monohydrochloride by HPLC-UV according to the first method and the second method, respectively, are shown in Tables 5 and 6. [table] [table]
# [2] = Solubility in water at various pH-values; details: for calculated concentration charged: soluble
# Experimental: The solubilities in water of 6-(4-(tert-butyl)phenoxy)pyridin-3-amine (formula (Ia)) and the monohydrochloride salt thereof, i.e. 6-(4-(tert-butyl)phenoxy)pyridin-3-amine monohydrochloride, were assessed at various pH-values according to Tables 3 and 4. The solubility in water of 6-(4-(tert-butyl)phenoxy)pyridin-3-amine (formula (Ia)) according to Table 3 was assayed as follows: Free base 500 mg were charged into 14 mL of acidic media at pH=2, 4, at neutral pH=7 and basic pH=10 to afford suspensions within calculated concentration of appr. 35 mg/mL. The solubility in water of 6-(4-(tert-butyl)phenoxy)pyridin-3-amine monohydrochloride according to Table 4 was assayed as follows: HCl salt 100 mg each were charged into acidic media at pH=2 and 4 and neutral media pH=7 to furnish solutions. Most important observation was to that at a neutral solution at pH=7 drops down to pH=1 by charging HCl salt 100 mg.
# [3] = Forced degradation: solid state with thermal stress
# Experimental: Instrumentation: • Light stability chamber: Solarbox 1500e • Oven: Salvis Vacuum drying oven VC-20 • Heating unit: Ikamag RET-GS with IKA ETS SD and stainless steel heating block • Vials: Supelco V-Vials and screw caps with PTFE septa • Gas tight vials: Agilent 10 mL HS-GC clear glass vials and crimp caps with Not applicable PTFE septa • Quartz glass cuvette: Hellma precision cuvette Suprasil, Type 117.100-QS, 10 mm path length, screw capped with silicone septa • HPLC: As described above
# The HPLC test method described above was used to determine the assay and purity of 6-(4-(tert-butyl)phenoxy)pyridin-3-amine monohydrochloride before the forced degradation experiments and the area % content of individual impurities and degradation products in the 6-(4-(tert-butyl)phenoxy)pyridin-3-amine monohydrochloride samples obtained from the degradation experiments.
# The assay and the purity of 6-(4-(tert-butyl)phenoxy)pyridin-3-amine monohydrochloride were determined using HPLC with UV detection at 220 nm utilizing the area normalization methodology for purity determination and external standard calibration for assay determination. During all experiments the UV spectra from 200 nm to 950 nm have been recorded and also the peak purity of 6-(4-(tert-butyl)phenoxy)pyridin-3-amine monohydrochloride was assessed.
# Approximately 20.4 mg and 50.1 mg of 6-(4-(tert-butyl)phenoxy)pyridin-3-amine monohydrochloride were weighed into a Supelco V-Vial. The vial was closed with the screw cap and stored in the heating block of the heating unit operated at 100° C.±5° C. for 20 h (20 mg sample) and 68 h (50 mg sample), respectively.
# After storage at 100° C. for the intended time each sample was cooled down to room temperature and the content of the vial was dissolved in about 4 mL of the sample solvent (acetonitrile/water 3:1 v/v). The obtained solution was quantitatively transferred into a 25 mL volumetric flask (20 mg sample), or to a 50 mL volumetric flask (50 mg sample), respectively. […]
# [4] = 6 months stability studies, 25° C., 60% rh, 3 mths
# [5] = 6 months stability studies, 25° C., 60% rh, 6 mths
# [6] = 6 months stability studies, 25° C., 60% rh, Release data
# [7] = 36 months stability studies, 25° C. 60% rh, 6 mths
# [8] = 36 months stability studies, 25° C. 60% rh, 9 mths
# [9] = 36 months stability studies, 25° C. 60% rh, 12 mths
# [10] = 36 months stability studies, 25° C. 60% rh, 18 mths
# [11] = 36 months stability studies, 25° C. 60% rh, 24 mths
# [12] = 15% acetic acid soln., pH solvent 2, 100 mg in 0.6 ml
# [13] = Fluka 33643 (pH = 4), 100 mg in 1.4 ml
# [14] = Fluka 33646 (pH = 7), 100 mg in 1.0 ml
smiles,measurement,setting,value
CC(C)(C)c1ccc(Oc2ccc(N)cn2)cc1.Cl [6-(4-(tert-butyl)phenoxy)pyridin-3-amine monohydrochloride],"Assay free base, mean",[1]; [4],88.8 % m/m
same,"IR, conforms to reference",[1]; [4],complies
same,"Purity, mean",[1]; [4],99.5 % area
same,Water,[1]; [4],0.01 % m/m
same,"Assay free base, mean",[1]; [5],87.2 % m/m
same,"IR, conforms to reference",[1]; [5],complies
same,"Purity, mean",[1]; [5],98.8 % area
same,Water,[1]; [5],0.01 % m/m
same,"Assay free base, mean",[1]; [6],87.0 % m/m
same,"IR, conforms to reference",[1]; [6],complies
same,"Purity, mean",[1]; [6],99.2 % area
same,Water,[1]; [6],0.02 % m/m
same,Water,"[1]; 36 months stability studies, 25° C. 60% rh, 3 mths",0.01 % m/m
same,"Assay free base, mean",[1]; [7],88.6 % m/m
same,"Purity, mean",[1]; [7],100.0 % area
same,Water,[1]; [7],0.01 % m/m
same,"Assay free base, mean",[1]; [8],88.0 % m/m
same,"Purity, mean",[1]; [8],100.0 % area
same,Water,[1]; [8],0.02 % m/m
same,"Assay free base, mean",[1]; [9],86.9 % m/m
same,"Purity, mean",[1]; [9],100.0 % area
same,Water,[1]; [9],0.02 % m/m
same,"Assay free base, mean",[1]; [10],87.7 % m/m
same,"Purity, mean",[1]; [10],100.0 % area
same,Water,[1]; [10],0.02 % m/m
same,"Assay free base, mean",[1]; [11],87.6 % m/m
same,Water,[1]; [11],0.02 % m/m
same,"Purity, mean","[1]; 36 months stability studies, 25° C. 60% rh, 24 mths, monohydrochloride",100 % area
same,Water,"[1]; 36 months stability studies, 25° C. 60% rh, Release data",0.02 % m/m
same,pH solution,[2]; [12],0
same,soluble,"[2]; 15% acetic acid soln., pH solvent 2, 100 mg in 0.6 ml, conc. 166.66 mg/mL",yes
same,calculated concentration charged,[2]; [12],166.66 mg/mL
same,pH solution,[2]; [13],1
same,soluble,"[2]; Fluka 33643 (pH = 4), 100 mg in 1.4 ml, conc. 71.43 mg/mL",yes
same,calculated concentration charged,[2]; [13],71.43 mg/mL
same,pH solution,[2]; [14],1
same,soluble,"[2]; Fluka 33646 (pH = 7), 100 mg in 1.0 ml, conc. 100.00 mg/mL",yes
same,calculated concentration charged,[2]; [14],100.00 mg/mL
same,solubility in water,"[2]; water, in words",well-soluble
same,stability in solid state,[3]; 100° C.,stable
same,changes in the purity and the purity profile,"[3]; solid state, after 68 h storage at 100° C.",No significant changes
same,decrease in the assay,"[3]; solid state, storage at 100° C., accepted variability of the method ±2%",≤ 2%
